The source of these data is ChEMBL document CHEMBL1201862, “PubChem BioAssay data set” (2004).

Activity calls are given as the source filed them.

As a reminder, the AC50 is the midpoint of the concentration-response curve, whichever way the signal moves. The term EC50 denotes the concentration giving half of the maximal effect.

The target in test [1] is Cytochrome P450 3A4 (Homo sapiens, UniProt P08684). Particulars: Potency.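 Further: confirmatory qHTS run detecting inhibitors and substrates of CYP3A4.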
A short description of test [2]: cytotoxicity in HEK-293T cells, dose response, cytotoxicity control for TCR NF-kB inhibitor project, luminescence, T-cell screen hits (AID 489026).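 Further: cells exposed to compound about 14 hours before the viability readout.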 Format: functional, cell-based.
The target in test [3] is T1, Endoribonuclease toxin MazF (Escherichia coli K-12, UniProt P0AE70).
T1 sequence (P0AE70 whole entry): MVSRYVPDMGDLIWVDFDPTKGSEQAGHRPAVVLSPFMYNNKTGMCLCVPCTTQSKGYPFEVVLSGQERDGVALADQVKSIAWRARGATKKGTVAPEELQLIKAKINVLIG
Briefly: MazF toxin RNase activators, dose response, biochemical, fluorescence, single-stranded RNA substrate, uHTS hits (AID 588481). Format: functional.

In test [4] the target is T1, Endoribonuclease toxin MazF. Briefly: fluorescent RNA oligo signal without MazF, dose response, counter-screen for MazEF activator project, biochemical, fluorescence, single-stranded RNase substrate (AID 588502). Format: functional. On the technique in general: Counterscreens check selectivity or assay interference.
Test [5] addresses T2, Long-chain-fatty-acid--AMP ligase FadD28 (Mycobacterium tuberculosis, UniProt P9WQ59).
T2 sequence (P9WQ59 whole entry): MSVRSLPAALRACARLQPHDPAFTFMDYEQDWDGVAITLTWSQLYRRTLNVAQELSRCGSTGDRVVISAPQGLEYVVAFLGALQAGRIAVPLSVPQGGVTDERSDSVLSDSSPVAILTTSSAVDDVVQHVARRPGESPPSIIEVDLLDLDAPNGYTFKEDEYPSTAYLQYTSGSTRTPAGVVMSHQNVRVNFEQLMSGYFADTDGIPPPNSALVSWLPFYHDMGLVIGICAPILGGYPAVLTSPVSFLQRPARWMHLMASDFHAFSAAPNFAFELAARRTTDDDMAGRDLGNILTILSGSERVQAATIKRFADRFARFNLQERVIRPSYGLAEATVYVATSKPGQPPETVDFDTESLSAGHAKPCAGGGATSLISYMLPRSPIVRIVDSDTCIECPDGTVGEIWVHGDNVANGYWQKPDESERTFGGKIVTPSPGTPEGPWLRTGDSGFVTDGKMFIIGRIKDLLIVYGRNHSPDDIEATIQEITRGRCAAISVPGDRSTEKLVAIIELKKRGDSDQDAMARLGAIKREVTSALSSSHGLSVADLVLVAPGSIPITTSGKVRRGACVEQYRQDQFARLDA
Briefly: Fluorescence polarization aasay to screen for inhibitors that compete for the binding of FadD28 to a bisubstrate Measured in Biochemical System Using Plate Reader - 2147-01_Inhibitor_Dose_CherryPick_Activity. Format: functional, Mycobacterium tuberculosis H37Rv.

For test [6], the target named is Heat shock protein HSP 90-alpha (Homo sapiens, UniProt P07900). Format: functional, organism-based.
In test [7] the test system is H9c2. Nature of the test: cells. Format: functional, cell-based. The note with it: Rattus norvegicus, H9c2, Myocardium.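 Further: confirmatory concentration-response retest of ultra-high-throughput screening hits for modulation of myocardial damage; cell death induced by hydrogen peroxide oxidative stress; compound pretreatment for 60 min then peroxide exposure for 2 h; potency is for protecting the cells against peroxide damage rather than for killing them.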
In test [8] the target is T3, Polyadenylate-binding protein 1 (Homo sapiens, UniProt P11940). Briefly: PABP1 MLLE–PAM2 interaction inhibitors, dose response, miRNA deadenylation inhibitor project, biochemical, fluorescence polarization, Cy5-PAM2 peptide, secondary (AID 602260). The note with it: read-out: IC50_Mean. Format: functional. Background: Polarisation of emitted light reports the rotation of a fluorescent probe.

In test [9] the target is T3, Polyadenylate-binding protein 1. Nature of the test: PABP1 MLLE–PAM2 binding inhibitor potency, dose response, biochemical, fluorescence polarization, FITC-PAM2 peptide (AID 602259). Format: functional. Particulars: read-out: IC50_Mean.
The nature of test [10]: inhibitors of intracellular T. cruzi replication, confirmation, NIH3T3 host cells, beta-gal luminescence (AID 2044).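 Further: intracellular parasites grown in NIH/3T3 mouse fibroblasts as host cells; luminescent beta-galactosidase reporter signal from transgenic T. cruzi replicating inside host cells; inhibitors lower the luminescence signal.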 Format: functional, cell-based.
The nature of test [11]: cytotoxicity toward NIH3T3 fibroblasts, dose response, counter-screen, cell-based, ATP luminescence, mouse fibroblasts (AID 2010).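 Further: cells exposed to compound for about 90 hours before reading.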 Format: functional.
Test [12] can be described thus: THP-1 cell cytotoxicity, dose response, cytotoxicity control for non-replicating M. tuberculosis project (AID 489025). Format: functional.
A short description of test [13]: Vero E6 cell cytotoxicity, dose response, cytotoxicity control for non-replicating M. tuberculosis project, secondary assay (AID 492998). Format: functional, VeroE6. Particulars: Vero C1008.
A short description of test [14]: cells. Format: functional.
Test [15] in a line: microbe, parasite or virus in culture. Particulars: Mycobacterium tuberculosis. Format: functional.
Test [16] deals with T4, Replicative DNA helicase DnaB (Mycobacterium tuberculosis, UniProt P9WMR3).
T4 sequence (P9WMR3 whole entry): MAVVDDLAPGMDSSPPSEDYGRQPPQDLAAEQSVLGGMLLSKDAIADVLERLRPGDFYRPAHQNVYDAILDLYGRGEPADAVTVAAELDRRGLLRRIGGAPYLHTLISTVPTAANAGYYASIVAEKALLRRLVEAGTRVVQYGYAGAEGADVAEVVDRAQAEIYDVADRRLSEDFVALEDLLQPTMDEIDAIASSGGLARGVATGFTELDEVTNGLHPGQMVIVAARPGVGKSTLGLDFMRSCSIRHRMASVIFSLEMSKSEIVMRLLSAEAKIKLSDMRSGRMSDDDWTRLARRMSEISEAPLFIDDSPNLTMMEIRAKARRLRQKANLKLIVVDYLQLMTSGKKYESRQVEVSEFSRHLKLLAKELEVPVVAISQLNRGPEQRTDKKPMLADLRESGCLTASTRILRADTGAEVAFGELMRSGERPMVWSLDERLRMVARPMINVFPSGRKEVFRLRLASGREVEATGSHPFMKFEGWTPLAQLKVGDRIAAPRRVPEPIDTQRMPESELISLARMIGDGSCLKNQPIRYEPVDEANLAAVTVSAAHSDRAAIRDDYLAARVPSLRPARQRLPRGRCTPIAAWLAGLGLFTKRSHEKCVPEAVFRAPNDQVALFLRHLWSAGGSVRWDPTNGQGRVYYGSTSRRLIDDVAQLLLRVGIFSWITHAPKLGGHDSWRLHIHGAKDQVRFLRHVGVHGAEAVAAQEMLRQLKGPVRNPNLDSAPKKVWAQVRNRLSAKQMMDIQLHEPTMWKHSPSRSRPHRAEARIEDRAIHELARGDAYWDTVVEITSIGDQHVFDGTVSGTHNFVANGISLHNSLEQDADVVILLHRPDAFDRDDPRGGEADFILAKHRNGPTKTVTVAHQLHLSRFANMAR
Nature of the test: DnaB intein splicing inhibitors, dose response, biochemical, cell-free fluorescence (AID 449749). Format: functional.

Test [17] addresses T5, Protein RecA (Mycobacterium tuberculosis, UniProt P9WHJ3).
T5 sequence (P9WHJ3 whole entry): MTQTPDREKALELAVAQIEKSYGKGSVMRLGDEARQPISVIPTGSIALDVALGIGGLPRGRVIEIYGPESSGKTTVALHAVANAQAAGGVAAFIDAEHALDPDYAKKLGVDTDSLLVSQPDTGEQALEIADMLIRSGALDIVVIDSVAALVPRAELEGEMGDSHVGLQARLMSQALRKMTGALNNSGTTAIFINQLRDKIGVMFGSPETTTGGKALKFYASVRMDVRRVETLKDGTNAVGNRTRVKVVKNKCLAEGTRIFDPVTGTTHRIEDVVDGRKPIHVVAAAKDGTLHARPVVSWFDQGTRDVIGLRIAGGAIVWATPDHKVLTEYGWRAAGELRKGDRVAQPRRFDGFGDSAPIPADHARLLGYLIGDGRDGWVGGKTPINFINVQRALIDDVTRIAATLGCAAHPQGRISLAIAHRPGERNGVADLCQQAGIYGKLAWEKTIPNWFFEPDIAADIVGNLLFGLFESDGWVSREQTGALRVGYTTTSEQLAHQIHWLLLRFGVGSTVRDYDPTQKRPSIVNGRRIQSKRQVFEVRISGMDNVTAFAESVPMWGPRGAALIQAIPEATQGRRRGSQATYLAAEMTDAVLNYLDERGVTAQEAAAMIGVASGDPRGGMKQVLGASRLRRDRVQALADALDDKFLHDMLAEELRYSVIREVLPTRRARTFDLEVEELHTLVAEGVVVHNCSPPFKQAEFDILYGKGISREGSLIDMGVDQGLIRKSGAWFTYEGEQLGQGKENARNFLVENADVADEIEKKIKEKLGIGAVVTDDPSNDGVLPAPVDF
Nature of the test: Fluorescence Cell-Free Homogeneous Dose Retest to Identify Inhibitors of RecA-Intein Splicing Activity. [Related pubchem assays (depositor defined):AID2097, AID2223, AID489010, AID492950]. Format: functional.

A short description of test [18]: cells. Format: functional, cell-based.
A short description of test [19]: cells. Format: functional, cell-based. This is another data set of the same source.

Sequence of Cytochrome P450 3A4 (P08684 whole entry): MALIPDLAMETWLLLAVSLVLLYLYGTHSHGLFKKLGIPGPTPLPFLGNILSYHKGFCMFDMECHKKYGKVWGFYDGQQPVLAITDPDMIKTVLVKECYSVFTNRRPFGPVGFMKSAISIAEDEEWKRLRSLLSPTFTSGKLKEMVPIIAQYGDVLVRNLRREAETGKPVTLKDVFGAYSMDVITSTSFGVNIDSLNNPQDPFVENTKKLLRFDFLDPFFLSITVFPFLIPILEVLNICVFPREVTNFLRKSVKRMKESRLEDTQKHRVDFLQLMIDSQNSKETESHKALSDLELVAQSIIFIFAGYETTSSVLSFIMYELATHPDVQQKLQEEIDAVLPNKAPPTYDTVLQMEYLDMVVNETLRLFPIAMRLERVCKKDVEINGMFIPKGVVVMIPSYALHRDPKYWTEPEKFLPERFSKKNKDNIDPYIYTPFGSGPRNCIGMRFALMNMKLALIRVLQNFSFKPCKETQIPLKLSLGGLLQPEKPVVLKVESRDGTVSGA
T3 sequence (P11940 whole entry): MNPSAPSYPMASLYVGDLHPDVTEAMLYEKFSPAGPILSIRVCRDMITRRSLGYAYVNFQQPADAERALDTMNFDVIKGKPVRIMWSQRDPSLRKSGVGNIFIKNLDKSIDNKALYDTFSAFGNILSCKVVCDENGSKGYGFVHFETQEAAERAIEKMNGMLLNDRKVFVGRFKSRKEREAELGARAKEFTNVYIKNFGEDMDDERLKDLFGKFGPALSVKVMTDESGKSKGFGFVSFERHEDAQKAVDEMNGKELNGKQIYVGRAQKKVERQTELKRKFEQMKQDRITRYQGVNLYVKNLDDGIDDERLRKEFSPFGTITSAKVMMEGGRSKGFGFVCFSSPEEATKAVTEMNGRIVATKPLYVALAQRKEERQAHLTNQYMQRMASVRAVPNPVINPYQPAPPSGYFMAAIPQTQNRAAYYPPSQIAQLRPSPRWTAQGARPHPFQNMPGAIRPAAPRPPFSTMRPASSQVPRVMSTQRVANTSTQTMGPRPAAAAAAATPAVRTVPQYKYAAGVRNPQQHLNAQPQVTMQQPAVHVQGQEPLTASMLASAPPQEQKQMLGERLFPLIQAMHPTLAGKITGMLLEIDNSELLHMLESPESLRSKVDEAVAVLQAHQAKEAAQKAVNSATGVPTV

On to `COC(=O)c1c(C)c2c(c(C)c1O)OC(=O)c1c(C)c(Cl)c(O)c(Cl)c1O2` [LEOIDIN], for which the AC50 in [1] is 2.51 µM (inconclusive).

Regarding `COc1cc(C2c3cc4c(cc3CC3COC(=O)C32)OCO4)cc(OC)c1OC` (centres undefined), in test [2], the IC50 was > 80 µM (inactive).

Turning to `Nc1c(C(=O)c2ccc(Cl)cc2)sc2nc3c(cc12)CCC3`, the EC50 in test [3] and in test [4] was > 99 µM (inactive) in each case.

As for `Nc1ncnc2c1ncn2[C@@H]1O[C@H](CNCc2ccc(OCc3ccccc3)cc2)[C@@H](O)[C@H]1O`, the AC50 in [5] was 64.2 µM (active).

As to `O=c1c(-c2ccccc2)c(-c2ccccc2)oc2cc(O)cc(O)c12`, the AC50 in [6] was 7.78 µM (active).

Consider `COC(=O)[C@@H]1C[C@@H]2CC[C@@H](O)C[C@@H]2N1Cc1ccc(C)s1`, for which the AC50 in test [1] is 25.1 µM (inconclusive).

For the compound `Cc1cccc(-n2[nH]c(C)c(/C=N/c3ccc4[nH]c(O)nc4c3)c2=O)c1`, the values for the EC50 in [3] and in test [4] were 36 µM (inactive) and 65.2 µM (inactive), respectively. Also, the IC50 in [7] was > 79 µM (inactive).

As for `CCOC(=O)CSc1nc2cc(C)ccc2cc1C#N`, the EC50 in [3] is > 99 µM (inactive); in [4], 26.8 µM (inactive).

In the case of `COc1ccc2nc3cc(Cl)ccc3c(C#N)c2c1`, the EC50 in [3] and in test [4] was > 99 µM (inactive) in each case. For the same compound, the IC50 in test [8] and in test [9] was > 66 µM (inactive) throughout.

For the compound `COc1cc(OC)cc(N2C(=O)CC(N3CCC(C(=O)N4CCCCC4)CC3)C2=O)c1` (centres undefined), the AC50 in test [6] was 8.16 µM (active).

Regarding `C=CCOC(=O)C(C(C)=O)C(NC(=O)OC)c1ccco1` (centres undefined), the AC50 in test [1] was 5.01 µM (inconclusive).

For the compound `COc1cccc(NC(=O)CN(C)C(=O)c2cc3c(s2)CCCCC3)c1`, the AC50 in test [5] is 84 µM (active).

Take `CCCCC(CC)COP(=O)(OCC(CC)CCCC)OCC(CC)CCCC` (centres undefined): the AC50 in test [1] was 15.8 µM (inconclusive).

`COc1ccc(NC(=O)CNc2ccccc2N2CCCC2=O)cc1S(=O)(=O)N1CCOCC1`: the AC50 in [5] is 34.1 µM (active).

As for `Cc1cccc(NC(=O)c2ccc([N+](=O)[O-])s2)n1`, the EC50 was 0.325 µM (active) in test [10] and > 60 µM (not active) in [11]. In addition, the CC50 is 29.9 µM (active) in test [12] and 19.1 µM (active) in test [13]. Further, the IC50 in test [14] was 11.8 µM (active).

As for `COC(=O)c1cccc(C23CC4(C2)[C@H](CN(Cc2ccc(-c5ccccc5)cc2)[C@@H]4c2ccccc2)C3c2ccc(C(F)(F)F)cc2)c1` (some centres undefined), the AC50 in [1] was 20 µM (inconclusive).

For `Cc1ccc2c(c1)C(=O)C(=O)N2Cc1ccc(C(F)(F)F)cc1`, in test [6], the AC50 is 7.94 µM (active).

On to `Cc1[nH]n(-c2ccccc2)c(=O)c1C(C[N+](=O)[O-])c1ccccc1Cl` (centres undefined), for which, in test [15], the CC50 was > 40 µM (active). Further, the AC50 in [16] was 6.69 µM (active). Further, the EC50 in test [17] was 5.48 µM (active).

Turning to `Cc1sc(NC(=O)COc2cccc(-n3cnnn3)c2)c(C#N)c1C`, the EC50 in test [3] and in [4] was > 99 µM (inactive) throughout.

As for `Cc1cc(C)nc(Sc2ncnc(N)c2[N+](=O)[O-])n1`, the EC50 in test [18] and in test [19] was > 350 µM (not active) in each case. Further, the figures for the CC50 in [15], in test [12] and in test [13] were 26.3 µM (active), 23.8 µM (active) and 17.8 µM (active), respectively. Besides, the IC50 in test [14] was 11.7 µM (active).
